According to the NIST ThermoML archive (doi:10.1021/acs.jced.7b00788):
± gives the expanded uncertainty stated by the source.

Experiment: xn = mol fraction of the nth substance listed
Conditions: 100 kPa, Liquid; for viscosity: Concentric cylinders viscometry; for mass density: Vibrating tube method

Structure (SMILES): CCOP(=O)([O-])OCC.CCn1cc[n+](C)c1 [1-ethyl-3-methylimidazolium diethyl phosphate] + O
- viscosity (293.15 K, x2 = 0.012): 540 ± 30 mPa·s
- viscosity (293.15 K, x2 = 0.061): 513 ± 28 mPa·s
- viscosity (293.15 K, x2 = 0.123): 487 ± 26 mPa·s
- viscosity (293.15 K, x2 = 0.183): 462 ± 25 mPa·s
- viscosity (293.15 K, x2 = 0.259): 422 ± 22 mPa·s
- viscosity (293.15 K, x2 = 0.502): 202 ± 10 mPa·s
- viscosity (293.15 K, x2 = 0.765): 51.1 ± 2.7 mPa·s
- viscosity (293.15 K, x2 = 0.88): 12.5 ± 0.9 mPa·s
- mass density (293.15 K, x2 = 0.012): 1151.2 ± 1.2 kg/m3
- mass density (293.15 K, x2 = 0.061): 1151.7 ± 1.1 kg/m3
- mass density (293.15 K, x2 = 0.123): 1152.1 ± 1 kg/m3
- mass density (293.15 K, x2 = 0.183): 1152.4 ± 1 kg/m3
- mass density (293.15 K, x2 = 0.259): 1153 ± 0.9 kg/m3
- mass density (293.15 K, x2 = 0.502): 1154.6 ± 0.7 kg/m3
- mass density (293.15 K, x2 = 0.765): 1150.2 ± 0.6 kg/m3
- mass density (293.15 K, x2 = 0.88): 1124 ± 1.7 kg/m3
- viscosity (303.15 K, x2 = 0.012): 274 ± 15 mPa·s
- viscosity (303.15 K, x2 = 0.061): 262 ± 14 mPa·s
- viscosity (303.15 K, x2 = 0.123): 250 ± 14 mPa·s
- viscosity (303.15 K, x2 = 0.183): 238 ± 13 mPa·s
- viscosity (303.15 K, x2 = 0.259): 219 ± 12 mPa·s
- viscosity (303.15 K, x2 = 0.502): 111 ± 6 mPa·s
- viscosity (303.15 K, x2 = 0.765): 31.2 ± 1.5 mPa·s
- viscosity (303.15 K, x2 = 0.88): 8.35 ± 0.44 mPa·s
- mass density (303.15 K, x2 = 0.012): 1144.2 ± 1.2 kg/m3
- mass density (303.15 K, x2 = 0.061): 1144.7 ± 1.1 kg/m3
- mass density (303.15 K, x2 = 0.123): 1145.2 ± 1 kg/m3
- mass density (303.15 K, x2 = 0.183): 1145.5 ± 0.9 kg/m3
- mass density (303.15 K, x2 = 0.259): 1146.1 ± 0.9 kg/m3
- mass density (303.15 K, x2 = 0.502): 1147.8 ± 0.7 kg/m3
- mass density (303.15 K, x2 = 0.765): 1143.1 ± 0.6 kg/m3
- mass density (303.15 K, x2 = 0.88): 1116.7 ± 1.4 kg/m3
- viscosity (313.15 K, x2 = 0.012): 154 ± 8 mPa·s
- viscosity (313.15 K, x2 = 0.061): 148 ± 7 mPa·s
- viscosity (313.15 K, x2 = 0.123): 141 ± 7 mPa·s
- viscosity (313.15 K, x2 = 0.183): 135 ± 7 mPa·s
- viscosity (313.15 K, x2 = 0.259): 125 ± 6 mPa·s
- viscosity (313.15 K, x2 = 0.502): 65.8 ± 3.1 mPa·s
- viscosity (313.15 K, x2 = 0.765): 20.3 ± 1 mPa·s
- viscosity (313.15 K, x2 = 0.88): 5.91 ± 0.3 mPa·s
- mass density (313.15 K, x2 = 0.012): 1137.4 ± 1.2 kg/m3
- mass density (313.15 K, x2 = 0.061): 1137.9 ± 1.1 kg/m3
- mass density (313.15 K, x2 = 0.123): 1138.4 ± 1 kg/m3
- mass density (313.15 K, x2 = 0.183): 1138.7 ± 0.9 kg/m3
- mass density (313.15 K, x2 = 0.259): 1139.3 ± 0.9 kg/m3
- mass density (313.15 K, x2 = 0.502): 1141.1 ± 0.7 kg/m3
- mass density (313.15 K, x2 = 0.765): 1135.9 ± 0.6 kg/m3
- mass density (313.15 K, x2 = 0.88): 1109.2 ± 1.4 kg/m3
- viscosity (323.15 K, x2 = 0.012): 94 ± 4.4 mPa·s
- viscosity (323.15 K, x2 = 0.061): 90.2 ± 4.2 mPa·s
- viscosity (323.15 K, x2 = 0.123): 86.4 ± 4 mPa·s
- viscosity (323.15 K, x2 = 0.183): 83.1 ± 3.8 mPa·s
- viscosity (323.15 K, x2 = 0.259): 76.5 ± 3.5 mPa·s
- viscosity (323.15 K, x2 = 0.502): 40.7 ± 1.8 mPa·s
- viscosity (323.15 K, x2 = 0.765): 14 ± 0.6 mPa·s
- viscosity (323.15 K, x2 = 0.88): 4.38 ± 0.22 mPa·s
- mass density (323.15 K, x2 = 0.012): 1130.7 ± 1.2 kg/m3
- mass density (323.15 K, x2 = 0.061): 1131.2 ± 1.1 kg/m3
- mass density (323.15 K, x2 = 0.123): 1131.7 ± 1 kg/m3
- mass density (323.15 K, x2 = 0.183): 1132 ± 0.9 kg/m3
- mass density (323.15 K, x2 = 0.259): 1132.6 ± 0.8 kg/m3
- mass density (323.15 K, x2 = 0.502): 1134.3 ± 0.7 kg/m3
- mass density (323.15 K, x2 = 0.765): 1128.6 ± 0.6 kg/m3
- mass density (323.15 K, x2 = 0.88): 1101.7 ± 1.3 kg/m3
- viscosity (333.15 K, x2 = 0.012): 61.2 ± 2.8 mPa·s
- viscosity (333.15 K, x2 = 0.061): 58.8 ± 2.6 mPa·s
- viscosity (333.15 K, x2 = 0.123): 56.2 ± 2.5 mPa·s
- viscosity (333.15 K, x2 = 0.183): 54.3 ± 2.4 mPa·s
- viscosity (333.15 K, x2 = 0.259): 49.3 ± 2.2 mPa·s
- viscosity (333.15 K, x2 = 0.502): 27.6 ± 1.2 mPa·s
- viscosity (333.15 K, x2 = 0.765): 10.1 ± 0.5 mPa·s
- viscosity (333.15 K, x2 = 0.88): 3.36 ± 0.16 mPa·s
- mass density (333.15 K, x2 = 0.012): 1124.1 ± 1.1 kg/m3
- mass density (333.15 K, x2 = 0.061): 1124.6 ± 1.1 kg/m3
- mass density (333.15 K, x2 = 0.123): 1125 ± 1 kg/m3
- mass density (333.15 K, x2 = 0.183): 1125.4 ± 0.9 kg/m3
- mass density (333.15 K, x2 = 0.259): 1126 ± 0.8 kg/m3
- mass density (333.15 K, x2 = 0.502): 1127.4 ± 0.7 kg/m3
- mass density (333.15 K, x2 = 0.765): 1121.2 ± 0.6 kg/m3
- mass density (333.15 K, x2 = 0.88): 1094 ± 1.3 kg/m3
- viscosity (343.15 K, x2 = 0.012): 42.1 ± 1.9 mPa·s
- viscosity (343.15 K, x2 = 0.061): 40.4 ± 1.8 mPa·s
- viscosity (343.15 K, x2 = 0.123): 38.6 ± 1.7 mPa·s
- viscosity (343.15 K, x2 = 0.183): 37.4 ± 1.6 mPa·s
- viscosity (343.15 K, x2 = 0.259): 34.1 ± 1.5 mPa·s
- viscosity (343.15 K, x2 = 0.502): 19.6 ± 0.8 mPa·s
- viscosity (343.15 K, x2 = 0.765): 7.58 ± 0.33 mPa·s
- viscosity (343.15 K, x2 = 0.88): 2.67 ± 0.13 mPa·s
- mass density (343.15 K, x2 = 0.012): 1117.5 ± 1.1 kg/m3
- mass density (343.15 K, x2 = 0.061): 1118 ± 1.1 kg/m3
- mass density (343.15 K, x2 = 0.123): 1118.4 ± 1 kg/m3
- mass density (343.15 K, x2 = 0.183): 1118.8 ± 0.9 kg/m3
- mass density (343.15 K, x2 = 0.259): 1119.3 ± 0.8 kg/m3
- mass density (343.15 K, x2 = 0.502): 1120.5 ± 0.7 kg/m3
- mass density (343.15 K, x2 = 0.765): 1113.8 ± 0.6 kg/m3
- mass density (343.15 K, x2 = 0.88): 1086.1 ± 1.3 kg/m3
- viscosity (353.15 K, x2 = 0.012): 30.2 ± 1.3 mPa·s
- viscosity (353.15 K, x2 = 0.061): 29 ± 1.3 mPa·s
- viscosity (353.15 K, x2 = 0.123): 27.7 ± 1.2 mPa·s
- viscosity (353.15 K, x2 = 0.183): 26.9 ± 1.2 mPa·s
- viscosity (353.15 K, x2 = 0.259): 24.5 ± 1.1 mPa·s
- viscosity (353.15 K, x2 = 0.502): 14.4 ± 0.6 mPa·s
- viscosity (353.15 K, x2 = 0.765): 5.88 ± 0.25 mPa·s
- viscosity (353.15 K, x2 = 0.88): 2.18 ± 0.1 mPa·s
- mass density (353.15 K, x2 = 0.012): 1111 ± 1.1 kg/m3
- mass density (353.15 K, x2 = 0.061): 1111.5 ± 1.1 kg/m3
- mass density (353.15 K, x2 = 0.123): 1111.9 ± 1 kg/m3
- mass density (353.15 K, x2 = 0.183): 1112.1 ± 0.9 kg/m3
- mass density (353.15 K, x2 = 0.259): 1112.7 ± 0.8 kg/m3
- mass density (353.15 K, x2 = 0.502): 1113.7 ± 0.7 kg/m3
- mass density (353.15 K, x2 = 0.765): 1106.3 ± 0.6 kg/m3
- mass density (353.15 K, x2 = 0.88): 1078.1 ± 1.3 kg/m3
- viscosity (363.15 K, x2 = 0.012): 22.5 ± 1 mPa·s
- viscosity (363.15 K, x2 = 0.061): 21.6 ± 0.9 mPa·s
- viscosity (363.15 K, x2 = 0.123): 20.6 ± 0.9 mPa·s
- viscosity (363.15 K, x2 = 0.183): 20 ± 0.9 mPa·s
- viscosity (363.15 K, x2 = 0.259): 18.3 ± 0.8 mPa·s
- viscosity (363.15 K, x2 = 0.502): 11.2 ± 0.5 mPa·s
- viscosity (363.15 K, x2 = 0.765): 4.69 ± 0.2 mPa·s
- viscosity (363.15 K, x2 = 0.88): 1.83 ± 0.09 mPa·s
- mass density (363.15 K, x2 = 0.012): 1104.5 ± 1.1 kg/m3
- mass density (363.15 K, x2 = 0.061): 1104.9 ± 1 kg/m3
- mass density (363.15 K, x2 = 0.123): 1105.2 ± 1 kg/m3
- mass density (363.15 K, x2 = 0.183): 1105.6 ± 0.9 kg/m3
- mass density (363.15 K, x2 = 0.259): 1106.1 ± 0.8 kg/m3
- mass density (363.15 K, x2 = 0.502): 1106.8 ± 0.7 kg/m3
- mass density (363.15 K, x2 = 0.765): 1098.7 ± 0.6 kg/m3
- mass density (363.15 K, x2 = 0.88): 1070 ± 0.8 kg/m3
- viscosity (373.15 K, x2 = 0.012): 17.3 ± 0.8 mPa·s
- viscosity (373.15 K, x2 = 0.061): 16.5 ± 0.7 mPa·s
- viscosity (373.15 K, x2 = 0.123): 15.8 ± 0.7 mPa·s
- viscosity (373.15 K, x2 = 0.183): 15.3 ± 0.7 mPa·s
- viscosity (373.15 K, x2 = 0.259): 14.1 ± 0.6 mPa·s
- viscosity (373.15 K, x2 = 0.502): 8.9 ± 0.4 mPa·s
- viscosity (373.15 K, x2 = 0.765): 3.83 ± 0.16 mPa·s
- viscosity (373.15 K, x2 = 0.88): 1.55 ± 0.08 mPa·s
- mass density (373.15 K, x2 = 0.012): 1098.2 ± 1.1 kg/m3
- mass density (373.15 K, x2 = 0.061): 1098.5 ± 1 kg/m3
- mass density (373.15 K, x2 = 0.123): 1098.9 ± 1 kg/m3
- mass density (373.15 K, x2 = 0.183): 1099.1 ± 0.9 kg/m3
- mass density (373.15 K, x2 = 0.259): 1099.6 ± 0.8 kg/m3
- mass density (373.15 K, x2 = 0.502): 1099.9 ± 0.7 kg/m3
- mass density (373.15 K, x2 = 0.765): 1091.2 ± 1 kg/m3
- mass density (373.15 K, x2 = 0.88): 1061.9 ± 0.8 kg/m3
